In patent US20210246115A1 (Bioimics AB, priority 2017, published 2021):
pIC50: −log10 of the molar value. Where a name gives a salt, the structure may show the parent alone.

Experiments:
[1] = test system: Staphylococcus aureus (ATCC25923); test: MIC, broth microdilution (CLSI), Staphylococcus aureus ATCC25923; conditions: Staphylococcus aureus, ATCC25923, read-out: S. aureus ATCC 25923 MIC
[2] = test system: Escherichia coli (ATCC25922); test: MIC, broth microdilution (CLSI), Escherichia coli; conditions: Escherichia coli, ATCC25922, read-out: E. coli ATCC 25922 MIC, Table XIII
[3] = test system: E. coli RNase P RNA, M1 RNA; test: Inhibition of bacterial RNase P activity, IC50 determination (cleavage of pATSerUG by M1 RNA); type: biochemical; conditions: NI: No inhibition

Row | MIC [1] | MIC [2] | pIC50 [3] | SMILES
1 | 32 µg/mL | 512 µg/mL | 4.85 | Cc1cccc(C(CC(=O)N[C@H]2CC[C@H](N)CC2)c2cn(CCC3CCCCC3)c3ccccc23)c1.Cl (stereo partly drawn) [Compound 113, N-((1R,4R)-4-aminocyclohexyl)-3-(1-(2-cyclohexylethyl)-1H-indol-3-yl)-3-(m-tolyl)propanamide hydrochloride salt]
2 | 9 µg/mL | 151 µg/mL | 4.77 | Cc1cccc(C(CC(=O)NC2CCC(N)CC2)c2cn(CC3CCCCC3)c3ccc(-c4ccnn4C)cc23)c1.Cl (stereo not drawn) [Compound 183, N-(4-aminocyclohexyl)-3-(1-(cyclohexylmethyl)-5-(1-methyl-1H-pyrazol-5-yl)-1H-indol-3-yl)-3-(m-tolyl)propanamide hydrochloride salt]
3 | 16 µg/mL | 64 µg/mL | 4.35 | Cc1cccc(C(CC(=O)NCCC2CCNCC2)c2cn(CC3CCCCC3)c3ccccc23)c1.Cl (stereo not drawn) [Compound 92, 3-(1-(cyclohexylmethyl)-1H-indol-3-yl)-N-(2-(piperidin-4-yl)ethyl)-3-(m-tolyl)propanamide hydrochloride salt]
4 | 128 µg/mL | 128 µg/mL | 3.80 | Cl.N[C@H]1CC[C@H](NC(=O)CCc2cn(CC3CCCCC3)c3ccccc23)CC1 [Compound 116, N-((1r,4r)-4-aminocyclohexyl)-3-(1-(cyclohexylmethyl)-1H-indol-3-yl)propanamide hydrochloride salt]
5 | 2 µg/mL | 5 µg/mL | 4.60 | NC1CCC(NCCc2cn(CC3CCCCC3)c3ccc(-c4ccccc4OC(F)(F)F)cc23)CC1 [Compound 241, (1S,4S)-N1-(2-(1-(cyclohexylmethyl)-5-(2-(trifluoromethoxy)phenyl)-1H-indol-3-yl)ethyl)cyclohexane-1,4-diamine hydrochloride salt]
6 | 65 µg/mL | 129 µg/mL | 3.64 | Cl.O=C(Cc1cn(CC2CCC(F)(F)CC2)c2ccc(Br)cc12)NC1CCNCC1 [Compound 277, 2-(5-bromo-1-((4,4-difluorocyclohexyl)methyl)-1H-indol-3-yl)-N-(piperidin-4-yl)acetamide hydrochloride salt]
7 | 5 µg/mL | > 512 µg/mL | 3.94 | Cc1cccc(C(CC(=O)NCC2CCC(CN)CC2)c2cn(CC3CCCCC3)c3ccc(Br)cc23)c1.Cl (stereo not drawn) [Compound 203, N-((4-(aminomethyl)cyclohexyl)methyl)-3-(5-bromo-1-(cyclohexylmethyl)-1H-indol-3-yl)-3-(m-tolyl)propanamide hydrochloride salt]
8 | 150 µg/mL | > 512 µg/mL | 4.49 | Cc1cccc(C(CC(=O)NC2CCC(N)CC2)c2cn(CC3CCCCC3)c3c(Br)cccc23)c1.Cl [Compound 174, N-((1S,4S)-4-aminocyclohexyl)-3-(7-bromo-1-(cyclohexylmethyl)-1H-indol-3-yl)-3-(m-tolyl)propanamide hydrochloride salt]
9 | 66 µg/mL | 133 µg/mL | 3.79 | Cl.O=C(CCc1cn(CC2CCC(F)(F)CC2)c2ccc(Br)cc12)NC1CCNCC1 [Compound 286, 3-(5-bromo-1-((4,4-difluorocyclohexyl)methyl)-1H-indol-3-yl)-N-(piperidin-4-yl)propanamide hydrochloride salt]
10 | 64 µg/mL | 127 µg/mL | 3.87 | Cl.N[C@H]1CC[C@H](NC(=O)CCc2nn(CC3CCCCC3)c3ccc(Br)cc23)CC1 [Compound 270, N-((1r,4r)-4-aminocyclohexyl)-3-(5-bromo-1-(cyclohexylmethyl)-1H-indazol-3-yl)propanamide hydrochloride salt]
11 | 17 µg/mL | > 512 µg/mL | 4.77 | Cc1cccc(C(CC(=O)NC2CCC(CN)CC2)c2cn(CC3CCCCC3)c3ccccc23)c1.Cl (stereo not drawn) [Compound 182, N-((1r,4r)-4-(aminomethyl)cyclohexyl)-3-(1-(cyclohexylmethyl)-1H-indol-3-yl)-3-(m-tolyl)propanamide hydrochloride salt]
